This note sets out measurements from patent publication US20100056565A1, “Heterocyclic Derivatives as M3 Muscarinic Receptors” (priority 2007, published 2010).

pKi: −log10 of the molar value. Where a name gives a salt, the structure may show the parent alone.

For the test, the target named is T1, Recombinant human M3 receptor (Homo sapiens, UniProt P20309).
T1 construct: expressed in transfected cells; host or cells: CHO-K1 cells (membranes)
T1 sequence (P20309 whole entry): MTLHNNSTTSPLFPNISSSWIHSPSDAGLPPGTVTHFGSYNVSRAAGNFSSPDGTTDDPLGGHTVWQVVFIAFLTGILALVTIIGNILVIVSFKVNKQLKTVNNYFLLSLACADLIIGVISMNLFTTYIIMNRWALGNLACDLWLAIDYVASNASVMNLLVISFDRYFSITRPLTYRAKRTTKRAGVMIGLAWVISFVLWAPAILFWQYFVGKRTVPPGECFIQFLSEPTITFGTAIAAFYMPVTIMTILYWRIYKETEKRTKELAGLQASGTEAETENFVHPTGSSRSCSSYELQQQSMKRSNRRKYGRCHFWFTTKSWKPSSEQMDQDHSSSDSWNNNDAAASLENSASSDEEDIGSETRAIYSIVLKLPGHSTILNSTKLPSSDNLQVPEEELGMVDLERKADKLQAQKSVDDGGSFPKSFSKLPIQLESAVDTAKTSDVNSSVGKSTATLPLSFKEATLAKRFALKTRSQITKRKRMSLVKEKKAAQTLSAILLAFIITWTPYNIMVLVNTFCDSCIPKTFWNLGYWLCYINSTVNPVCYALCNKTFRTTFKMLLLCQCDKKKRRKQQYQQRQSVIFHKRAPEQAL
Briefly: biochemical. Type of test: binding. Particulars: SPA format; read-out: M3 Ki (SPA format). How it is done:
Recombinant human M3 receptor was expressed in CHO-K1 cells. Cell membranes were prepared and binding of [3H]-N-methyl scopolamine ([3H]-NMS) and compounds was assessed by a scintillation proximity assay (SPA). The incubation time was 16 hours at room temperature in the presence of 1% (v/v) DMSO. The assay was performed in white 96 well clear-bottomed NBS plates (Corning). Prior to the assay, the CHO cell membranes containing M3 receptor were coated onto SPA WGA (Wheat germ agglutinin) beads (GE Healthcare). Non specific binding was determined in the presence of 1 μM Atropine.
Radioactivity was measured on a Microbeta scintillation counter (PerkinElmer) using a 3H protocol with a 2 minutes per well read time. […] Concentration dependent inhibition of [3H]-NMS binding by compounds was expressed as pIC50.
`O[C@](c1ccccc1)(c1ncc(C[N+]23CCC(CC2)C(OCc2ccccc2)C3)o1)C1CCCCC1` (stereo partly drawn) [Example 16, 3-benzyloxy-1-[2-((R)-cyclohexyl-hydroxy-phenyl-methyl)-oxazol-5-ylmethyl]-1-azonia-bicyclo[2.2.2]octane; formate]: the pKi was greater than 8.30. The result for `O=C(N[C@@H]1C[N+]2(Cc3cnc([C@](O)(c4ccccc4)C4CCCCC4)o3)CCC1CC2)c1ccc(Cl)cc1` [Example 19, (S)-3-(4-chloro-benzoylamino)-1-[2-((R)-cyclohexyl-hydroxy-phenyl-methyl)-oxazol-5-ylmethyl]-1-azonia-bicyclo[2.2.2]octane; formate] reads greater than 8.30; that for `N#Cc1ccc(CO[C@H]2C[N+]3(Cc4cnc([C@](O)(c5ccccc5)C5CCCCC5)o4)CCC2CC3)cc1` [Example 21, (R)-3-(4-cyano-benzyloxy)-1-[2-((R)-cyclohexyl-hydroxy-phenyl-methyl)-oxazol-5-ylmethyl]-1-azonia-bicyclo[2.2.2]octane; formate], greater than 8.30; that for `O[C@](c1ccccc1)(c1ncc(C[N+]23CCC(CC2)[C@@H](OCc2ccc(Cl)c(Cl)c2)C3)o1)C1CCCCC1` [Example 22, (R)-1-[2-((R)-cyclohexyl-hydroxy-phenyl-methyl)-oxazol-5-ylmethyl]-3-(3,4-dichloro-benzyloxy)-1-azonia-bicyclo[2.2.2]octane; formate], greater than 8.30. The result for `O[C@](c1ccccc1)(c1ncc(C[N+]23CCC(CC2)[C@@H](OCc2ccc(Cl)cc2)C3)o1)C1CCCCC1` [Example 23, (R)-3-(4-Chloro-benzyloxy)-1-[2-((R)-cyclohexyl-hydroxy-phenyl-methyl)-oxazol-5-ylmethyl]-1-azonia-bicyclo[2.2.2]octane; bromide] reads greater than 8.30.

On to `O[C@](c1ccccc1)(c1ncc(C[N+]23CCC(CC2)[C@H](COc2ccccc2)C3)o1)C1CCCCC1` [Example 24, (S)-1-[2-((R)—Cyclohexyl-hydroxy-phenyl-methyl)-oxazol-5-ylmethyl]-3-phenoxymethyl-1-azonia-bicyclo[2.2.2]octane; bromide], for which the negative logarithm of the Ki (pKi) was greater than 8.30. The same measure for `OC(c1ccccc1)(c1ccccc1)c1ncc(C[N+]23CCC(CC2)[C@@H](COc2ccccc2)C3)o1` [Example 26, (R)-1-[2-(Hydroxy-diphenyl-methyl)-oxazol-5-ylmethyl]-3-phenoxymethyl-1-azonia-bicyclo[2.2.2]octane; bromide]: greater than 8.30; for `OC(c1ccccc1)(c1ccccc1)c1ncc(C[N+]23CCC(CC2)[C@@H](OCc2ccccc2)C3)o1` [Example 27, (R)-3-Benzyloxy-1-[2-(hydroxy-diphenyl-methyl)-oxazol-5-ylmethyl]-1-azonia-bicyclo[2.2.2]octane; bromide]: greater than 8.30; for `OC(c1ccccc1)(c1ccccc1)c1ncc(C[N+]23CCC(CC2)[C@@H](OCc2ccc(Cl)cc2)C3)o1` [Example 28, (R)-3-(4-Chloro-benzyloxy-1-[2-(hydroxy-diphenyl-methyl)-oxazol-5-ylmethyl]-1-azonia-bicyclo[2.2.2]octane; bromide]: 7.70 to 8.30. For `OC(c1ccccc1)(c1ncc(C[N+]23CCC(CC2)[C@@H](OCc2ccccc2)C3)s1)C1CCCCC1` (stereo partly drawn) [Example 29, (R)-3-Benzyloxy-1-[2-(cyclohexyl-hydroxy-phenyl-methyl)-thiazol-5-ylmethyl]-1-azonia-bicyclo[2.2.2]octane; bromide], the pKi is greater than 8.30. The result for `O[C@](c1ccccc1)(c1ncc(C[N+]23CCC(CC2)[C@@H](OCc2ccc(F)cc2)C3)o1)C1CCCCC1` [Example 32, (R)-1-[2-((R)—Cyclohexyl-hydroxy-phenyl-methyl)-oxazol-5-ylmethyl]-3-(4-fluoro-benzyloxy)-1-azonia-bicyclo[2.2.2]octane; bromide] reads greater than 8.30; that for `O[C@](c1ccccc1)(c1ncc(C[N+]23CCC(CC2)[C@@H](OCc2ccc(C(F)(F)F)cc2)C3)o1)C1CCCCC1` [Example 33, (R)-1-[2-((R)—Cyclohexyl-hydroxy-phenyl-methyl)-oxazol-5-ylmethyl]-3-(4-trifluoromethyl-benzyloxy)-1-azonia-bicyclo[2.2.2]octane; bromide], greater than 8.30; that for `Cc1ccc(CO[C@H]2C[N+]3(Cc4cnc([C@](O)(c5ccccc5)C5CCCCC5)o4)CCC2CC3)cc1` [Example 34, (R)-1-[2-((R)—Cyclohexyl-hydroxy-phenyl-methyl)-oxazol-5-ylmethyl]-3-(4-methyl-benzyloxy)-1-azonia-bicyclo[2.2.2]octane; bromide], greater than 8.30. The result for `O[C@](c1ccccc1)(c1ncc(C[N+]23CCC(CC2)[C@@H](OCc2cccc(F)c2)C3)o1)C1CCCCC1` [Example 35, (R)-1-[2-((R)-cyclohexyl-hydroxy-phenyl-methyl)-oxazol-5-ylmethyl]-3-(3-fluoro-benzyloxy)-1-azonia-bicyclo[2.2.2]octane; formate] reads greater than 8.30. The result for `O[C@](c1ccccc1)(c1ncc(C[N+]23CCC(CC2)C(CCc2ccccc2)C3)o1)C1CCCCC1` (stereo partly drawn) [Example 36, 1-[2-((R)—Cyclohexyl-hydroxy-phenyl-methyl)-oxazol-5-ylmethyl]-3-phenethyl-1-azonia-bicyclo[2.2.2]octane; bromide] reads greater than 8.30; that for `OC(c1ccccc1)(c1ccccc1)c1ncc(C[N+]23CCC(CC2)C(CCc2ccccc2)C3)o1` (stereo not shown) [Example 37, 1-[2-(Hydroxy-diphenyl-methyl)-oxazol-5-ylmethyl]-3-phenethyl-1-azonia-bicyclo[2.2.2]octane; bromide], greater than 8.30. As for `CC(C)=CCO[C@H]1C[N+]2(Cc3cnc([C@](O)(c4ccccc4)C4CCCCC4)o3)CCC1CC2` [Example 38, (R)-1-[2-((R)-cyclohexyl-hydroxy-phenyl-methyl)-oxazol-5-ylmethyl]-3-(3-methyl-but-2-enyloxy)-1-azonia-bicyclo[2.2.2]octane; formate], the pKi was greater than 8.30. The same measure for `OC(c1ccccc1)(c1ccccc1)c1ncc(C[N+]23CCC(CC2)C(SCc2ccccc2)C3)o1` (stereo not shown) [Example 39, 3-Benzylsulfanyl-1-[2-(hydroxy-diphenyl-methyl)-oxazol-5-ylmethyl]-1-azonia-bicyclo[2.2.2]octane; bromide,]: 7.70 to 8.30; for `O[C@](c1ccccc1)(c1ncc(C[N+]23CCC(CC2)[C@H](SCc2ccccc2)C3)o1)C1CCCCC1` [Example 40, (S)-3-Benzylsulfanyl-1-[2-((R)-cyclohexyl-hydroxy-phenyl-methyl)-oxazol-5-ylmethyl]-1-azonia-bicyclo[2.2.2]octane; bromide]: greater than 8.30. Turning to `O[C@](c1ccccc1)(c1ncc(C[N+]23CCC(CC2)[C@@H](SCc2ccccc2)C3)o1)C1CCCCC1` [Example 41, (R)-3-Benzylsulfanyl-1-[2-((R)-cyclohexyl-hydroxy-phenyl-methyl)-oxazol-5-ylmethyl]-1-azonia-bicyclo[2.2.2]octane; bromide], the pKi was greater than 8.30. For `O[C@](c1ccccc1)(c1ncc(C[N+]23CCC(CC2)[C@H](CSc2ccccc2)C3)o1)C1CCCCC1` [Example 43, (S)-1-[2-((R)—Cyclohexyl-hydroxy-phenyl-methyl)-oxazol-5-ylmethyl]-3-phenylsulfanylmethyl-1-azonia-bicyclo[2.2.2]octane; bromide], the pKi is greater than 8.30. Turning to `O[C@](c1ccccc1)(c1ncc(C[N+]23CCC(CC2)[C@@H](OCc2ccc(Cl)cc2)C3)o1)C1CCCC1` [Example 44, (R)-3-(4-chloro-benzyloxy)-1-[2-((R)-cyclopentyl-hydroxy-phenyl-methyl)-oxazol-5-ylmethyl]-1-azonia-bicyclo[2.2.2]octane; formate], the pKi was greater than 8.30.

In the case of `O[C@](c1ccccc1)(c1ncc(C[N+]23CCC(CC2)[C@@H](OCc2ccc(Cl)c(Cl)c2)C3)o1)C1CCCC1` [Example 45, (R)-1-[2-((R)-cyclopentyl-hydroxy-phenyl-methyl)-oxazol-5-ylmethyl]-3-(3,4-dichloro-benzyloxy)-1-azonia-bicyclo[2.2.2]octane; formate], the pKi is greater than 8.30. The same measure for `O[C@](c1ccccc1)(c1ncc(C[N+]23CCC(CC2)[C@@H](OCc2ccsc2)C3)o1)C1CCCCC1` [Example 46, (R)-1-[2-((A)-Cyclohexyl-hydroxy-phenyl-methyl)-oxazol-5-ylmethyl]-3-(thiophen-3-ylmethoxy)-1-azonia-bicyclo[2.2.2]octane; bromide]: greater than 8.30; for `O[C@](c1ccccc1)(c1ncc(C[N+]23CCC(COCc4ccccc4)(CC2)CC3)o1)C1CCCCC1` [Example 47, 4-Benzyloxymethyl-1-[2-((R)-cyclohexyl-hydroxy-phenyl-methyl)-oxazol-5-ylmethyl]-1-azonia-bicyclo[2.2.2]octane; bromide]: less than 7.70; for `OC(c1ccccc1)(c1ccccc1)c1ncc(C[N+]23CCC(CC2)[C@@H](OCc2cccc(F)c2)C3)o1` [Example 49, (R)-3-(3-fluoro-benzyloxy)-1-[2-(hydroxy-diphenyl-methyl)-oxazol-5-ylmethyl]-1-azonia-bicyclo[2.2.2]octane; formate]: greater than 8.30. Regarding `C=CCO[C@H]1C[N+]2(Cc3cnc([C@](O)(c4ccccc4)C4CCCCC4)o3)CCC1CC2` [Example 51, (R)-3-allyloxy-1-[2-((R)-cyclohexyl-hydroxy-phenyl-methyl)-oxazol-5-ylmethyl]-1-azonia-bicyclo[2.2.2]octane; formate], the pKi is greater than 8.30.

Consider `O[C@](c1ccccc1)(c1ncc(C[N+]23CCC(CC2)[C@@H](OCc2ccccc2F)C3)o1)C1CCCCC1` [Example 52, (R)-1-[2-((R)-cyclohexyl-hydroxy-phenyl-methyl)-oxazol-5-ylmethyl]-3-(2-fluoro-benzyloxy)-1-azonia-bicyclo[2.2.2]octane; formate], for which the pKi is greater than 8.30.
